Tests used:
Coccomyxa actinabiotis [1] = assay: Extraction of bound metals from the microalgae with water or HCl; format: cell-based
Method: Experiments in which the metals bound by the algae are solubilized were carried out by incubating these algae (70 mg of fresh matter) in 5 ml of demineralized water, or of demineralized water supplemented with HCl at various concentrations. In neutral medium, the metals are not extracted.
The cations most retained are ^60Co, ^108mAg and ^110mAg. They remain bound to the cell for low concentrations of HCl (pH 4.5 to 2.5). They begin to be released exponentially below a threshold pH of 2.5, Co being the most solidly bound since it is at most 35% extracted after 6 days of exposure at pH 0.5, whereas Ag is 90% extracted under the same conditions. At pH 1.5, 10% of Ag and 2% of Co are extracted after 6 days of exposure.

Coccomyxa actinabiotis [2] = assay: Extraction of bound metals from the microalgae with 0.1 M EDTA pH 4.5; format: cell-based; details: 0.1 M EDTA pH 4.5, 2 days of exposure
Method: Other experiments were carried out in the presence of a 0.1 M solution of EDTA with a pH of 4.5. Under these conditions, 35% of the ^51Cr contained in the algae, but only 1% of the ^60Co and less than 0.5% of ^108mAg and ^116mAg, are extracted after 2 days of exposure.

Coccomyxa actinabiotis [3] = format: cell-based; details: after one day; 250 mg fresh mass of microalgae from BBM culture
Method: Another experiment was carried out by placing 250 mg of fresh mass of microalgae originating from cultures in BBM medium in the presence of […] of demineralized water which has a composition similar to that of the water from the spent fuel storage pools, namely pH 5.5, conductivity 1.2 μS/cm, containing 280 Bq/l of ^60Co, 530 Bq/l of ^58Co, 66 Bq/l of ^110mAg, 1460 Bq/l of ^124Sb, 1180 Bq/l of ^51Cr, 120 Bq/l of ^65Zn, […] and also tritium (260 000 Bq/l) and ^14C (10 000 Bq/l).

Coccomyxa actinabiotis [4] = assay: Transported decontamination of storage pool water, 24 h contact; format: cell-based; details: 50 ml water, 9×10^8 cells (140 mg fresh mass)
Method: Water originating from a spent nuclear element storage pool was brought into contact with Coccomyxae actinabiotis(50 ml of water in contact with 9×10^8 cells, i.e. 140 mg of algae by fresh mass, originating from culture and rinsed beforehand three times with Milli-Q water).
Table V below indicates the initial composition of the water, according to the total γ-activity measured and the γ-activity measured per radionuclide, and the percentage of γ-emitting radionuclides bound by the algae at 24 h.

Coccomyxa actinabiotis [5] = assay: Exposure to heavy water: respiration and photosynthesis of the algae; format: cell-based; details: 24 h and 48 h in 50%, 80% and 100% D2O in the dark; 24 h light in 50% D2O
Coccomyxa actinabiotis [6] = assay: Maximum metal concentrations tolerated (one week exposure to Ag or Co); format: cell-based
Method: The limiting doses supported by Coccomyxa actinabiotis were investigated by exposure of the algae to silver or to cobalt for one week (20 mg of microalgae (fresh mass) in 100 ml of deionized water containing Ag or Co ions at various concentrations).

Coccomyxa actinabiotis [7] = assay: Kinetics of binding and incorporation of silver by algae with or without mucilage; format: cell-based
Method: Two series of experiments were carried out: one with algae having a coating of mucilage, the thickness of which, evaluated by optical microscopy, is about 1 μm or more (“algae with mucilage”), the other with algae cultured in BBM medium and having little or no mucilage (“algae without mucilage”).
20 mg of algae (compacted fresh mass) and 90 ml of solution of Ag^+ at various concentrations are introduced into Erlenmeyer flasks. The 20 mg of algae are prepared as follows: sample taken from a round-bottomed culture flask, centrifugation for 20 minutes at 3000 rpm, washing twice in demineralized water (suspension, centrifugation). The culture medium is thus removed and there is no risk of it complexing the silver.
The algae without mucilage are brought into contact with solutions containing 0.11 mg/L and 5.5 mg/L of Ag^+.
The algae with mucilage are brought into contact with solutions containing 22 μg/L, 1.1 mg/L and 55 mg/L of Ag^+.
The Erlenmeyer flasks are placed on illuminated shakers and samples of 5 ml are taken for various exposure times in order to monitor the binding kinetics for each of the initial concentrations of silver. The samples are centrifuged for 10 minutes at 4500 rpm in order to separate the algae which have concentrated the metal. The metal content is then analyzed in the pellet (algae) and in the supernatant.

organisms = details: Ratte 1999; cited from earlier work
Deinococcus radiodurans = details: John et al. 2000; cited from earlier work
Coccomyxa actinabiotis [8] = assay: Growth in the presence of cobalt; format: cell-based
From the text: However, the Coccomyxa actinabiotis microalga does grow in the presence of 10^−4 mol/l of cobalt.

## [51Cr] [^51Cr]
Coccomyxa actinabiotis [1]; pH 0.5, 6 days of exposure
  metal extracted from algae: ≤ 25%
Coccomyxa actinabiotis [2]
  metal contained in the algae extracted: 35%
Coccomyxa actinabiotis [3]
  percentage of isotope fixed: 48%

## [58Co] [^58Co]
Coccomyxa actinabiotis [3]
  percentage of isotope fixed: 94%

## [65Zn] [^65Zn]
Coccomyxa actinabiotis [3]
  percentage of isotope fixed: 100%

## [Mn] [^54Mn]
Coccomyxa actinabiotis [4]
  % binding by the algae: 100%
Coccomyxa actinabiotis [3]
  percentage of isotope fixed: 90%

## [110Ag] [^110mAg]
Coccomyxa actinabiotis [4]
  % binding by the algae: 100%
Coccomyxa actinabiotis [3]
  percentage of isotope fixed: 100%

## [2H]O[2H] [heavy water]
Coccomyxa actinabiotis [5]
  effect on respiration and photosynthesis of the algae: no effect

## [60Co] [^60Co]
Coccomyxa actinabiotis [4]
  % binding by the algae: 72%
Coccomyxa actinabiotis [2]
  metal contained in the algae extracted: 1%
Coccomyxa actinabiotis [3]
  percentage of isotope fixed: 94%

## [124Sb] [^124Sb]
Coccomyxa actinabiotis [3]
  percentage of isotope fixed: 30%

## [Ag] [silver]
Coccomyxa actinabiotis [6]; Coccomyxae actinabiotis with mucilage
  extracellular silver concentration withstood: at least 50 mg/L
Coccomyxa actinabiotis [6]; Coccomyxae actinabiotis without mucilage
  silver concentration at which algae do not survive: greater than 250 μg/L
Coccomyxa actinabiotis [1]; pH 0.5, 6 days of exposure
  metal extracted from algae: 90%
Coccomyxa actinabiotis [1]; pH 1.5, 6 days of exposure
  metal extracted from algae: 10%
Coccomyxa actinabiotis [7]; algae with mucilage, initial concentration 55 mg/l
  silver bound at the plateau: 20%
Coccomyxa actinabiotis [7]; algae without mucilage, initial concentration 5.5 mg/l
  silver bound at the plateau: 75%
organisms
  concentration at which silver is generally toxic: 10^−7-10^−5 mol/l

## [U] [^238U]
Coccomyxa actinabiotis [4]
  % binding by the algae: 95%

## [Co+2] [cobalt]
Coccomyxa actinabiotis [6]; with mucilage
  cobalt intolerance threshold (Co2+ concentration): > 800 mg/L
Coccomyxa actinabiotis [6]; without mucilage
  cobalt intolerance threshold (Co2+ concentration): > 50 mg/L
Deinococcus radiodurans
  cobalt concentration inhibiting growth: 5 ppm
Coccomyxa actinabiotis [1]; pH 0.5, 6 days of exposure
  metal extracted from algae: at most 35%
Coccomyxa actinabiotis [1]; pH 1.5, 6 days of exposure
  metal extracted from algae: 2%
Coccomyxa actinabiotis [8]
  cobalt concentration in the presence of which the microalga grows: 10^−4 mol/l

## [137Cs] [^137Cs]
Coccomyxa actinabiotis [4]
  % binding by the algae: 100%
